Values quoted from earlier work as cited in US9155756B2, “Method for the prevention and treatment of sepsis” (Universiteit Maastricht, priority 2011, dated 2015).

Experiments:
[1] = tested on: patients with septic shock; details: low dose for 5-7 days
[2] = tested on: patients with severe sepsis

Compound | Clinical outcome [1] | Number needed to treat (NNT) for reduced mortality ([2]; patients with multi-organ failure, large randomized clinical trials) | Mortality ([2]; severe sepsis, decreased from about 31%)
C[C@]12CCC(=O)C=C1CC[C@@H]1[C@@H]2[C@@H](O)C[C@@]2(C)[C@H]1CC[C@]2(O)C(=O)CO [hydrocortisone] | improved outcomes | – | –
drotrecogin alfa | – | 16 | about 25%
